We go through seven compounds from ChEMBL document CHEMBL1129129, “Modelisation, synthesis and antiviral evaluation of new 2,3-disubstituted thiazolidinone nucleoside analogues” (Bioorg Med Chem Lett, 1996).

The test system of assay [1] is MT4. Kind of assay: Compound was tested for its cytotoxicity against HIV-1 infected MT-4 cell lines. Type of assay: functional. Particulars: Homo sapiens.
The subject of assay [2] is Anas sp. Kind of assay: Compound was tested for its cytotoxicity against duck hepatitis B virus in duck fetal hepatocytes culture. The assay is classed as functional. The settings on record: Hepatocyte.
Assay [3] relates to MT4. Kind of assay: Compound was tested to inhibit HIV-1 replication in MT-4 cell lines; value may range from 1 - 10. Type of assay: functional, cell-based. The settings on record: Homo sapiens.
Assay [4] deals with Anas sp. Nature of the assay: Compound was tested for its antiviral activity against hepatitis B virus(DHBV) in duck fetal hepatocytes culture. The assay is classed as functional, organism-based. The settings on record: Hepatocyte.
Assay [5] concerns MT4. Kind of assay: Compound was tested to inhibit HIV-1 replication in MT-4 cell lines. The settings on record: Homo sapiens. Type of assay: functional, cell-based.
The test system of assay [6] is MT4. Kind of assay: Compound was tested to inhibit HIV-1 replication in MT-4 cell lines; value may range from 5 - 15. Type of assay: functional, cell-based. The settings on record: Homo sapiens.

For `Nc1nc(=O)n(CCN2C(=O)CSC2CO)cc1F` (stereo not drawn), the CC50 in the assay on MT4 [1] was 100 µM; in the assay with Anas sp. [2], 150 µM. Further, the IC50 in the assay with MT4 [3] was found to be 10 µM; in the assay on Anas sp. [4], 2 µM.
With `Nc1ccn(CCN2C(=O)CSC2COC(=O)c2ccccc2)c(=O)n1` (stereo not drawn), the CC50 in the assay on MT4 [1] is around 100 µM. In addition, in the assay with MT4 [5], the IC50 was at least 100 µM.
`Nc1ccn(CCN2C(=O)CSC2CO)c(=O)n1` (stereo not drawn): the CC50 in the assay on MT4 [1] is around 300 µM; in the assay on Anas sp. [2], 100 µM. Besides, the IC50 with Anas sp. [4] is 2 µM; in the assay with MT4 [5], at least 300 µM.
Take `Cc1cn(CCN2C(=O)CSC2CO)c(=O)[nH]c1=O` (stereo not drawn): the CC50 with MT4 [1] was 100 µM; with Anas sp. [2], at least 200 µM. Further, the values for the IC50 in the assay on MT4 [6] and with Anas sp. [4] were 15 µM and 2 µM, respectively.
For `Nc1nc(=O)n(CCN2C(=O)CSC2COC(=O)c2ccccc2)cc1F` (stereo not drawn), the CC50 with MT4 [1] was determined as 100 µM. The compound further registered an IC50 in the assay with MT4 [3] of 10 µM.
With `Nc1ncnc2c1ncn2CCN1C(=O)CSC1CO` (stereo not drawn), the CC50 with MT4 [1] was determined as 100 µM; with Anas sp. [2] it was 200 µM. In addition, the IC50 with MT4 [3] turned out to be 10 µM; in the assay with Anas sp. [4] it was 2 µM.
With `Nc1ccn(C2CS[C@H](CO)O2)c(=O)n1` (single isomer, unassigned) [LAMIVUDINE], the figures for the CC50 with MT4 [1] and in the assay with Anas sp. [2] were 100 µM and above 400 µM, respectively. Moreover, inhibition in the assay with Anas sp. [4] was half-maximal at 0.1 µM (IC50).
